Patent US12485117B2, “Compositions and methods for activating signaling through the CB1 cannabinoid receptor for treating and preventing diseases and disorders characterized by abnormal cellular accumulation of sphingolipids such as sphingomyelin” (Wylder Nation Foundation, priority 2018, dated 2025)

Columns and labels:
wt and ASMko mice [1] = assay: Acute toxicity: sphingomyelin levels by enzymatic assay in brain areas and liver; assay type: in vivo, mouse; conditions: 48 hours
Experimental: (§1) We divided wt and ASMko mice of 4.5 months of age in six experimental groups: ASMko control (n=3), ASMko low dose (n=3), ASMko intermediate dose (n=3), ASMko high dose (n=3), wt control (n=3), wt high dose (n=3). PF-04457845, provided as powder, was dissolved in 0.9% NaCl and administered to mice through oral gavage. Vehicle groups received same volume of 0.9% NaCl.
Doses have been calculated taking into account that used in the study conducted in healthy humans (Li et al., Br J Clin Pharmacol 2011, 73:706-716). […] Estimating an average weight of 60 kg for an adult human the daily dose equals to 0.0083 mg/kg. This dose was very similar to that used in our first 8 week-long treatment with PF-04457845 in ASMko mice, which according to the formulas to calculate equivalence between humans and mice (Nair and Jacob J Basic Clin Pharma 2016, 7:27-31) corresponded to a daily HED dose of 0.0072 mg/kg. For this toxicity study we agreed to take into account the human dose: 0.0083 mg/kg. Formula conversion to mouse dose: HED (mg/kg)=Mouse dose (mg/kg)×mouseKm/Human Km).
Sphingomyelin levels were quantified by enzymatic assay in extracts from different brain areas (hippocampus, cerebellum and cortex) and from liver of wt and ASMko mice treated with PF-04457845 at 0.1 mg/kg, 1 mg/kg and 5 mg/kg or with vehicle (FIG. 26). The results confirmed the remarkable increase of sphingomyelin levels in the vehicle-treated ASMko mice with respect to wt at this advanced stage of the disease (168% in hippocampus, 170% in cerebellum, 139% in cortex and 216% in liver with respect to wt values considered 100%).

microglia = assay: Acute toxicity: brain inflammation by iba-1 immunofluorescence (microglia numbers); assay type: in vivo, mouse; conditions: ASMko mice
Text: FIGS. 29A-29C show representative images of immunofluorescence against ibal, a marker for microglia, which is used as a readout for inflammation. FIGS. 29A-29C show ibal expression in hippocampus (FIG. 29A), cerebellum (FIG. 29B), and cortex (FIG. 29C), respectively, of wt and ASMko mice treated with PF-04457845 at the indicated doses or with vehicle.
as §1
Inflammation was analyzed in different brain areas (hippocampus, cerebellum and cortex) by immunofluorescence against the microglia marker iba-1. Under inflammatory conditions the number of microglia increases. Confirming high inflammation in the brain of vehicle-treated ASMko mice, microglia numbers increased compared to wt mice in all areas (FIGS. 29A-29C).

[2] = cited from earlier work
Purkinje cells [3] = assay: Lysosomal size by Lamp1 staining of Purkinje cells; assay type: in vivo, mouse; conditions: ASMko mice, 0.3 mg/kg every three days
Experimental: (§2) FIGS. 15A-15D show representative images of Purkinje cells from wildtype and ASMko mice treated or not treated with PF-04457845.
(§3) Treatment started at 7 weeks of age and continued for 8 weeks. PF-04457845 was dissolved in 0.9% NaCl and delivered through oral gavage at a dose of 0.3 mg/kg every three days. We chose this dose based on the studies published by Ahn et al., (J Pharm Exp Ther 2011). Control groups received same volume of 0.9% NaCl without PF-04457845.
(§4) Purkinje cell death was analyzed by Calbindin1 staining in the cerebellum of wt and ASMko treated or not with PF-04457845 (FIG. 15A). Loss of Purkinje cells was prominent in non-treated ASMko mice compared to wt. […] PF-04457845 treatment had no effect on Purkinje cell survival in wt mice. We also analyzed Lysosomal size by staining Purkinje cells of the cerebellum for Lamp1 expression in samples from wt and ASMko mice treated or not treated with PF-04457845 (FIG. 15B). Lysosomal size was increased by an average 45% in the non-treated ASMko compared to wt mice consistent with sphingomyelin accumulation in these organelles. This alteration was prevented to a significant extent (35%) in the ASMko mice treated with PF.

Purkinje cells [4] = assay: Purkinje cell death by Calbindin1 staining in the cerebellum; assay type: in vivo, mouse; conditions: 0.3 mg/kg every three days
Experimental: as §2, §3, §4

wt and ASMko mice [5] = assay: Sphingomyelin levels by enzymatic assay in tissue extracts after 8-week treatment; assay type: in vivo, mouse; conditions: 0.3 mg/kg every three days, 8 weeks
Experimental: as §3
Sphingomyelin levels were measured by enzymatic assays in extracts of different brain areas and in liver, spleen, and lung (FIG. 14).

wt and ASMko mice [6] = assay: Survival analysis (life span); assay type: in vivo, mouse
Experimental: as §3
Behavioral analyses were performed in the last 2 weeks of treatment while still administering the drug. Then, half of the mice were sacrificed for biochemical and histological analysis and the other half continued receiving the treatment to monitor life span.
Seven mice per condition remained under treatment to monitor life span. While the mean survival of non-treated ASMko mice was 29 weeks, PF-04457845 treatment extended ASMko mice mean life span to 38 weeks (FIG. 19).

[7] = cited from earlier work; remark: listed apart in the source
[8] = in vivo; cited from earlier work
macrophages = assay: Acute toxicity: liver inflammation by F4/80 immunofluorescence (macrophage cell area); assay type: in vivo, mouse; conditions: ASMko mice
Experimental: as §1
Inflammation was analyzed in the liver by immunofluorescence against the macrophage marker F4/80. Under inflammatory conditions macrophages acquire an amoeboid shape indicative of maximal activation.

[9] = ASMko mice, single dose of 5 mg/kg
[10] = wt mice, single dose of 5 mg/kg

Compound: O=C(Nc1cccnn1)N1CCC(=Cc2cccc(Oc3ccc(C(F)(F)F)cn3)c2)CC1 [PF-04457845]
- sphingomyelin levels in hippocampus (wt and ASMko mice [1]; [9]): high variability
- sphingomyelin levels reduced in cerebellum (wt and ASMko mice [1]; [9]): 21%
- sphingomyelin levels reduced in cortex (wt and ASMko mice [1]; [9]): 8%
- sphingomyelin levels reduced in liver (wt and ASMko mice [1]; [9]): 6%
- reduction of sphingomyelin in brain areas and liver (wt and ASMko mice [1]; single dose of 0.1 mg/kg): No statistically significant reduction
- reduction of sphingomyelin in brain areas and liver (wt and ASMko mice [1]; single dose of 1 mg/kg): No statistically significant reduction
- sphingomyelin levels reduced in cerebellum (wt and ASMko mice [1]; [10]): 17%
- sphingomyelin levels reduced in cortex (wt and ASMko mice [1]; [10]): 23%
- sphingomyelin levels reduced in hippocampus (wt and ASMko mice [1]; [10]): 13%
- sphingomyelin levels reduced in liver (wt and ASMko mice [1]; [10]): 34%
- microglia numbers in hippocampus, cerebellum and cortex (microglia; single dose 0.1 mg/kg): did not significantly alter microglia numbers
- microglia numbers in hippocampus, cerebellum and cortex (microglia; single dose 1 mg/kg): remarkably reduced microglia numbers to levels similar to wt mice
- microglia numbers in hippocampus, cerebellum and cortex (microglia; single dose 5 mg/kg): remarkably reduced microglia numbers to levels similar to wt mice
- tolerability of much higher doses in healthy humans ([2]; Li et al., 2011): well tolerated
- safety in healthy humans ([2]; Ling et al., BJCP 2011): safety in healthy humans has been already demonstrated
- dose sufficient, well tolerated and providing maximal effects on FAAH activity and fatty acid amide elevation ([2]; once daily, healthy humans, Li et al., Br J Clin Pharmacol 2011): 0.5 mg
- increase of lysosomal size prevented (Lamp1) (Purkinje cells [3]): 35%
- Purkinje cell death (Calbindin1) (Purkinje cells [4]; ASMko mice, cerebellum): prevented cell death in a significant percentage of cells
- Purkinje cell survival (Purkinje cells [4]; wt mice): no effect
- sphingomyelin levels in cerebellum (wt and ASMko mice [5]; ASMko mice): significant reduction of sphingomyelin
- sphingomyelin levels in cortex (wt and ASMko mice [5]; ASMko mice): significant reduction of sphingomyelin
- sphingomyelin levels in hippocampus (wt and ASMko mice [5]; ASMko mice): significant reduction of sphingomyelin
- sphingomyelin levels in liver (wt and ASMko mice [5]; ASMko mice): significant reduction of sphingomyelin
- sphingomyelin levels in lung (wt and ASMko mice [5]; ASMko mice): non-statistically significant trend towards a decrease
- sphingomyelin levels in spleen (wt and ASMko mice [5]; ASMko mice): significant reduction of sphingomyelin
- sphingomyelin levels in tissues (wt and ASMko mice [5]; wt mice): did not alter sphingomyelin levels
- lifespan extended (wt and ASMko mice [6]; ASMko mice): 31%
- mean life span (wt and ASMko mice [6]; ASMko mice, continued treatment 0.3 mg/kg every three days): 38 weeks
- survival (wt and ASMko mice [6]; wildtype mice): did not affect
- doses that seem to be safe in rodents ([7]; Ahn et al., 2011): up to 10 mg/kg
- selectivity ([7]; Ahn et al., J Pharm Exp Ther 2011): exceptional selectivity
- duration of action in vivo ([7]; rodents, Ahn et al. 2011): long duration of action
- pharmacokinetic properties ([7]; rodents, Ahn et al. 2011): optimal pharmacokinetic properties
- brain blood barrier crossing [8]: can cross the brain blood barrier
- liver macrophage amoeboid morphology / cell area (macrophages; single dose 0.1 mg/kg): did not significantly alter macrophage amoeboid morphology
- liver macrophage cell area (macrophages; single dose 1 mg/kg): remarkably reduced macrophage cell area to levels similar to wt mice
- liver macrophage cell area (macrophages; single dose 5 mg/kg): remarkably reduced macrophage cell area to levels similar to wt mice
